Test results as given in ChEMBL document CHEMBL4627319, “Novel class of benzimidazole-thiazole hybrids: The privileged scaffolds of potent anti-inflammatory activity with dual inhibition of cyclooxygenase and 15-lipoxygenase enzymes” (Bioorg Med Chem, 2020).
One block for each molecule: values may come before it.

Key:
Rattus norvegicus [1] = experiment: Anti-inflammatory activity in albino rat assessed as inhibition of carrageenan-induced paw edema at 28 uM/kg, ip measured at 4 hrs by calliper method relative to control; assay type: functional
[2] = Ulcerogenic activity in albino rat assessed as congestion of blood vessel at 10 to 50 mg/kg, po measured after 6 hrs by H and E staining based light microscopic assay; assay type: toxicity, organism-based; settings: in vivo
Rattus norvegicus [3] = experiment: Antiinflammatory activity in albino rat assessed as reduction in carrageenan-induced paw edema by measuring thickness of right paw at 28 uM/kg, ip measured at 0.5 hrs by calliper method (reference value: 7.33 +/- 0.17 cm); assay type: functional
Rattus norvegicus [4] = experiment: Antiinflammatory activity in albino rat assessed as reduction in carrageenan-induced paw edema by measuring thickness of right paw at 28 uM/kg, ip measured at 3 hrs by calliper method (reference value: 7.83 +/- 0.33 cm); assay type: functional
Rattus norvegicus [5] = experiment: Antiinflammatory activity in albino rat assessed as reduction in carrageenan-induced paw edema by measuring thickness of right paw at 28 uM/kg, ip measured immediately by calliper method (reference value: 6.83 +/-0.17 cm); assay type: functional
Rattus norvegicus [6] = experiment: Antiinflammatory activity in albino rat assessed as reduction in carrageenan-induced paw edema by measuring thickness of right paw at 28 uM/kg, ip measured at 4 hrs by calliper method (reference value: 8.50 +/- 0.58 cm); assay type: functional
Rattus norvegicus [7] = experiment: Antiinflammatory activity in albino rat assessed as reduction in carrageenan-induced paw edema by measuring thickness of right paw at 28 uM/kg, ip measured at 2 hrs by calliper method (reference value: 7.67 +/- 0.17 cm); assay type: functional
Rattus norvegicus [8] = experiment: Anti-inflammatory activity in albino rat assessed as inhibition of carrageenan-induced paw edema at 28 uM/kg, ip measured at 1 hr by calliper method relative to control; assay type: functional
[9] = Ulcerogenic activity in albino rat assessed as damage of scarred mucosal epithelium at 10 to 50 mg/kg, po measured after 6 hrs by H and E staining based light microscopic assay; assay type: toxicity, organism-based; settings: in vivo
Rattus norvegicus [10] = experiment: Antiinflammatory activity in albino rat assessed as reduction in carrageenan-induced paw edema by measuring thickness of right paw at 28 uM/kg, ip measured at 1 hr by calliper method (reference value: 7.33 +/- 0.17 cm); assay type: functional
Rattus norvegicus [11] = experiment: Anti-inflammatory activity in albino rat assessed as inhibition of carrageenan-induced paw edema at 28 uM/kg, ip measured at 3 hrs by calliper method relative to control; assay type: functional
Rattus norvegicus [12] = experiment: Anti-inflammatory activity in albino rat assessed as inhibition of carrageenan-induced paw edema at 28 uM/kg, ip measured at 0.5 hrs by calliper method relative to control; assay type: functional
[13] = Ulcerogenic activity in albino rat assessed as ulcer formation with distorted gastric gland at 10 to 50 mg/kg, po measured after 6 hrs by H and E staining based light microscopic assay; assay type: toxicity, organism-based; settings: in vivo
Rattus norvegicus [14] = experiment: Anti-inflammatory activity in albino rat assessed as inhibition of carrageenan-induced paw edema at 28 uM/kg, ip measured at 2 hrs by calliper method relative to control; assay type: functional
[15] = Ulcerogenic activity in albino rat assessed as damage of gastric mucosa surface epithelium at 10 to 50 mg/kg, po measured after 6 hrs by H and E staining based light microscopic assay; assay type: toxicity, organism-based; settings: in vivo
[16] = Inhibition of soybean 15-LOX using arachidonic acid or linoleic acid as substrate preincubated for 5 mins followed by substrate addition and measured after 10 mins by colorimetric assay; set-up: species or system Glycine max
[17] = molecular target: T1, Prostaglandin G/H synthase 1 (Ovis aries, UniProt P05979); experiment: Inhibition of ovine COX1 using arachidonic acid as substrate preincubated for 10 mins followed by substrate addition and measured after 2 mins by EIA
T1 sequence (P05979 whole entry): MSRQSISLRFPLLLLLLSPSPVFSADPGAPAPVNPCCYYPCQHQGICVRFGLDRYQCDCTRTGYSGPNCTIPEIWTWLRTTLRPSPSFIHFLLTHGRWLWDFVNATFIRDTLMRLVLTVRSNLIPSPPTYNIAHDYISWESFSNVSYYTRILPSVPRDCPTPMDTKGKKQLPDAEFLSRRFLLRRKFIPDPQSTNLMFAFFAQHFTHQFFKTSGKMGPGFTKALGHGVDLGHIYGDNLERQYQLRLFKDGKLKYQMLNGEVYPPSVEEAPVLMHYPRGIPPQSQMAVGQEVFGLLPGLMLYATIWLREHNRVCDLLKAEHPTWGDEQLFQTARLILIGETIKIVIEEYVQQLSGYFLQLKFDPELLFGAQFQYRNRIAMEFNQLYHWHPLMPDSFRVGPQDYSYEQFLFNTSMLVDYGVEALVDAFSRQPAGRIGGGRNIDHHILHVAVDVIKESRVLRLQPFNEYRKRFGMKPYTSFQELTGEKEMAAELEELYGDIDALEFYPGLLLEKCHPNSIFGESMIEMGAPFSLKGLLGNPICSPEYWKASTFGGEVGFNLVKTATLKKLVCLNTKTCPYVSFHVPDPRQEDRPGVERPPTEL

Rattus norvegicus [18] = experiment: Anti-inflammatory activity in albino rat assessed as inhibition of carrageenan-induced paw edema at 28 uM/kg, ip measured at 4 hrs by calliper method relative to indomethacin; assay type: functional; set-up: scale not given: the % may be the effect or the level left
Rattus norvegicus [19] = experiment: Anti-inflammatory activity in albino rat assessed as inhibition of carrageenan-induced paw edema at 28 uM/kg, ip measured at 3 hrs by calliper method relative to indomethacin; assay type: functional; set-up: scale not given: the % may be the effect or the level left
[20] = molecular target: T2, Prostaglandin G/H synthase 2 (Homo sapiens, UniProt P35354); experiment: Inhibition of COX2 (unknown origin)
T2 sequence (P35354 whole entry): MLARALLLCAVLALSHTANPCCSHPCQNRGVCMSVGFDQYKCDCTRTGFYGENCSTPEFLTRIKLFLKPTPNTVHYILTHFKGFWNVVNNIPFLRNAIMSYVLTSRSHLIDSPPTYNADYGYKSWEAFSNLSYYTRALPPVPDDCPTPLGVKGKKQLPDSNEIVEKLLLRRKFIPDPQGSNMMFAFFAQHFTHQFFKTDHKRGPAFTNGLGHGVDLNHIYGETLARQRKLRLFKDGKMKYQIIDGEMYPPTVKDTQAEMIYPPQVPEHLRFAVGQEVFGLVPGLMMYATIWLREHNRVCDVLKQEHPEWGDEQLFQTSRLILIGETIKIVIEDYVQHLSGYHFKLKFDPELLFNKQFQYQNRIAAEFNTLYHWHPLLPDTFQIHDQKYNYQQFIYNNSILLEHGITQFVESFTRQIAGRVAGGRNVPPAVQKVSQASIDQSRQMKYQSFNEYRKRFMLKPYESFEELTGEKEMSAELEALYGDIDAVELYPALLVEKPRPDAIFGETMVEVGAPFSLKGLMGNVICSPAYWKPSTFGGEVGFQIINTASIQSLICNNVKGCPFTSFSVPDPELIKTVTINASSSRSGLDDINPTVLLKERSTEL

[21] = molecular target: Prostaglandin G/H synthase 1 (Homo sapiens, UniProt P23219); experiment: Inhibition of human COX1 expressed in CHO cells assessed as reduction in arachidonic acid-stimulated PGE2 production; assay type: cell-based
[22] = Ulcerogenic activity in albino rat assessed as effect on gastric mucosa membrane at 10 to 50 mg/kg, po measured after 6 hrs by H and E staining based light microscopic assay; assay type: toxicity, organism-based; settings: in vivo

Prostaglandin G/H synthase 1 (Homo sapiens, UniProt P23219), sequence (P23219 whole entry): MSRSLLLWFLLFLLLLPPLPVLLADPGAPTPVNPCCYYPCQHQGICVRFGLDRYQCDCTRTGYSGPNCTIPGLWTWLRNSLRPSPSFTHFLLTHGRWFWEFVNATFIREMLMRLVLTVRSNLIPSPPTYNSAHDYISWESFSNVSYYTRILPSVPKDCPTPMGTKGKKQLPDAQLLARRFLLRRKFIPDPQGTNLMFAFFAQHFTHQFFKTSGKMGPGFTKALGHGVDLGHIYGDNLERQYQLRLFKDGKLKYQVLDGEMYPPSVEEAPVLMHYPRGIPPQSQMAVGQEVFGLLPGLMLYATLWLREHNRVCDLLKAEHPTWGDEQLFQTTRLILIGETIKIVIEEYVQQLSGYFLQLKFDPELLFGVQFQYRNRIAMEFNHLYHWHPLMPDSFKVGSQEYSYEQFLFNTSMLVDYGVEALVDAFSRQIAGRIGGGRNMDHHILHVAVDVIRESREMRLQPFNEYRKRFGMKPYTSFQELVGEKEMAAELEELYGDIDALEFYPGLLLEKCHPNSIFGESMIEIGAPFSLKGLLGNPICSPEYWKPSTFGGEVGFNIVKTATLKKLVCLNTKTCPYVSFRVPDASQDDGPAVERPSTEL

SMILES: COc1ccc2c(c1)c(CC(=O)O)c(C)n2C(=O)c1ccc(Cl)cc1 [INDOMETHACIN]
inhibition (INH) (Rattus norvegicus [1]): 78.83%
Activity [2]: Toxic
Activity (Rattus norvegicus [3]): 5.83 cm
Activity (Rattus norvegicus [4]): 4.5 cm
Activity (Rattus norvegicus [5]): 7.17 cm
Activity (Rattus norvegicus [6]): 4.17 cm
Activity (Rattus norvegicus [7]): 4.67 cm
inhibition (INH) (Rattus norvegicus [8]): 54.17%
Activity [9]: Toxic
Activity (Rattus norvegicus [10]): 5 cm
inhibition (INH) (Rattus norvegicus [11]): 69.37%
inhibition (INH) (Rattus norvegicus [12]): 34.7%
Activity [13]: Toxic
inhibition (INH) (Rattus norvegicus [14]): 63.7%
Activity [15]: Toxic

IC50 [16]: 4.12 µM
IC50 [17]: 5.33 µM
SMILES: CSc1nc2ccccc2n1-c1csc(NC(=O)c2ccccc2)n1

IC50 [16]: 2.98 µM
IC50 [17]: 10.7 µM
SMILES: CSc1nc2ccccc2n1-c1csc(NC/C(C)=N/NC(=S)Nc2ccccc2)n1
inhibition (INH) (Rattus norvegicus [1]): 68.8%
Activity (Rattus norvegicus [3]): 5.67 cm
Activity (Rattus norvegicus [4]): 4.83 cm
Activity (Rattus norvegicus [5]): 7.33 cm
Activity (Rattus norvegicus [6]): 5.5 cm
Activity (Rattus norvegicus [7]): 4.67 cm
inhibition (INH) (Rattus norvegicus [8]): 53.73%
Activity (Rattus norvegicus [18]): 87.28%
Activity (Rattus norvegicus [10]): 5 cm
inhibition (INH) (Rattus norvegicus [11]): 70.97%
Activity (Rattus norvegicus [19]): 102.31%
inhibition (INH) (Rattus norvegicus [12]): 38.43%
inhibition (INH) (Rattus norvegicus [14]): 64.1%

IC50 [16]: 3.98 µM
IC50 [17]: 9.84 µM
SMILES: CSc1nc2ccccc2n1-c1csc(=N)n1CC(=O)c1ccccc1

IC50 [20]: 0.06 to 0.81 µM
SMILES: Clc1ccc(-c2nnc(Cn3c(CN4CCCCC4)nc4ccccc43)o2)cc1

IC50 [20]: 0.06 to 0.81 µM
SMILES: Fc1ccc(-c2nnc(Cn3c(CN4CCCCC4)nc4ccccc43)o2)cc1

IC50 [21]: > 50 µM
SMILES: CS(=O)(=O)c1ccc(-c2c(-c3ccccc3)nc3sccn23)cc1

IC50 [16]: 4.96 µM
IC50 [17]: 6.23 µM
SMILES: CSc1nc2ccccc2n1-c1csc(NC(=O)c2ccc(C)cc2)n1

IC50 [16]: 5.11 µM
IC50 [17]: 7.11 µM
SMILES: CSc1nc2ccccc2n1-c1csc(NC(=O)c2ccc(Cl)cc2)n1

IC50 [16]: 6.56 µM
IC50 [17]: 4.17 µM
SMILES: CSc1nc2ccccc2n1-c1csc(N)n1

IC50 [16]: 1.82 µM
SMILES: CCn1c(-n2cc(/C=N/N=c3\scc(-c4ccc(Br)cc4)n3-c3ccccc3)c(-c3ccc(OC)cc3)n2)nc2c1c(=O)n(C)c(=O)n2C

IC50 [16]: 11.9 µM
SMILES: O=C1N/C(=N\c2nnc(-c3ccc(O)cc3)s2)S/C1=C\c1ccc(Cl)c(Cl)c1

IC50 [20]: 0.06 to 0.81 µM
SMILES: O=[N+]([O-])c1ccc(-c2nnc(Cn3c(CN4CCCCC4)nc4ccccc43)o2)cc1

IC50 [16]: 1.98 µM
SMILES: CCn1c(-n2cc(/C=N/N=C3/NC(=O)CS3)c(-c3ccc(OC)cc3)n2)nc2c1c(=O)n(C)c(=O)n2C

IC50 [16]: 1.76 µM
SMILES: CCn1c(-n2cc(/C=N/N=c3\[nH]c(-c4ccc(Br)cc4)cs3)c(-c3ccc(OC)cc3)n2)nc2c1c(=O)n(C)c(=O)n2C

IC50 [16]: 1.85 µM
IC50 [17]: 12.4 µM
SMILES: CSc1nc2ccccc2n1-c1csc(NC/C(C)=N/N=c2\scc(-c3ccccc3)n2-c2ccccc2)n1

SMILES: O=c1c(O)c(-c2ccc(O)c(O)c2)oc2cc(O)cc(O)c12 [QUERCETIN]
IC50 [16]: 3.34 µM

IC50 [16]: 2.14 µM
IC50 [17]: 13.2 µM
SMILES: CSc1nc2ccccc2n1-c1csc(NC/C(C)=N/N=c2\scc(-c3ccc(C)cc3)n2-c2ccccc2)n1

IC50 [20]: 0.06 to 0.81 µM
SMILES: Fc1ccccc1-c1nnc(Cn2c(CN3CCCCC3)nc3ccccc32)o1

IC50 [16]: 1.96 µM
IC50 [17]: 10.6 µM
SMILES: CSc1nc2ccccc2n1-c1csc(NC/C(C)=N/N=C2\SCC(=O)N2c2ccccc2)n1
inhibition (INH) (Rattus norvegicus [1]): 80.57%
Activity [2]: Toxic
Activity (Rattus norvegicus [3]): 5.67 cm
Activity (Rattus norvegicus [4]): 3.83 cm
Activity (Rattus norvegicus [5]): 7 cm
Activity (Rattus norvegicus [6]): 4.5 cm
Activity (Rattus norvegicus [7]): 4.17 cm
inhibition (INH) (Rattus norvegicus [8]): 61.6%
Activity (Rattus norvegicus [18]): 102.21%
Activity (Rattus norvegicus [10]): 4.67 cm
inhibition (INH) (Rattus norvegicus [11]): 82.83%
Activity (Rattus norvegicus [19]): 119.4%
inhibition (INH) (Rattus norvegicus [12]): 38.4%
inhibition (INH) (Rattus norvegicus [14]): 74.83%
Activity [22]: Non-Toxic

IC50 [16]: 5.46 µM
IC50 [17]: 5.97 µM
SMILES: CSc1nc2ccccc2n1-c1csc2nc(-c3ccccc3)cn12

IC50 [16]: 2.93 µM
IC50 [17]: 11.7 µM
SMILES: CSc1nc2ccccc2n1-c1csc(NCC(C)=O)n1

IC50 [16]: 4.15 µM
IC50 [17]: 8.14 µM
SMILES: CSc1nc2ccccc2n1-c1csc(NCC(=O)c2ccc(Cl)cc2)n1

IC50 [16]: 1.67 µM
IC50 [17]: 13.2 µM
SMILES: CSc1nc2ccccc2n1-c1csc(NC/C(C)=N/N=c2\scc(-c3ccc(Cl)cc3)n2-c2ccccc2)n1
Activity (Rattus norvegicus [3]): 6.33 cm
Activity (Rattus norvegicus [4]): 4.67 cm
Activity (Rattus norvegicus [5]): 7.17 cm
Activity (Rattus norvegicus [6]): 5.67 cm
Activity (Rattus norvegicus [7]): 5 cm
inhibition (INH) (Rattus norvegicus [8]): 46.27%
Activity (Rattus norvegicus [18]): 93.2%
Activity (Rattus norvegicus [10]): 5.33 cm
inhibition (INH) (Rattus norvegicus [11]): 75.67%
Activity (Rattus norvegicus [19]): 109.08%
inhibition (INH) (Rattus norvegicus [12]): 22.67%
inhibition (INH) (Rattus norvegicus [14]): 56.67%
